Measured values from patent publication US20150099012A1, “METHODS FOR ACTIVATING RETROVIRUS IN LATENT INFECTED CELLS, AND COMPOUNDS FOR USE THEREIN” (Erasmus University Medical Center Rotterdam, priority 2012, published 2015).
“Also recorded” adds a separate entry of the source.

Columns and labels:
latent HIV LTR = experiment: Activation of latent HIV LTR in J-Lat/S-Lat latently infected cell lines (GFP reporter, FACS); assay type: cell-based, HIV-1; details: single agents; J-Lat/S-Lat or 1G5 cells; FIG. 5
Protocol: A) S-Lat 46, J-Lat P32, J-Lat A2, J-Lat 11.1, S-Lat 24, S-Lat 9 and […], and GFP expression was monitored by FACS analysis to determine activation of the latent LTR. B) J-Lat P32 and (C) S-Lat 30 Jurkats and SupT1 cell lines harbouring latently infected HIV were either untreated or treated with 2, 5 or 10 mM LiCl as indicated. Expression of HIV-LTR driven P24 and GFP, and endogenous Wnt target genes AXIN2, MMP9, TCF1, as well as control GAPDH and NFkB target genes TLR2 and ICAM1 was monitored by qRT-PCR 72 hours after treatment. Expression data are presented as fold induction normalized to Cyclophillin A control.
Expression data are presented as fold induction normalized to Cyclophillin A control.

LEF1 binding at HIV LTR = experiment: LEF1 ChIP at the HIV LTR in J-Lat cells; assay type: cell-based; details: latent J-Lat cells; FIG. 4D
Protocol: (§1) (A) Schematic representation of strategy to explore nucleosome position changes and enrichment of LEF/b-catenin at the HIV LTR in its repressed state and after Wnt activation. Jurkat latent cells at 0, and 12 hours after stimulation with LiCl, BIO VPA, or LiCl and VPA together were crosslinked and sonicated to yield DNA fragments of approximately 150 bp. DNA accessibility was monitored by formaldehyde-assisted isolation of regulatory elements (FAIRE) while nucleosome occupancy was determined by histone H2B Chromatin immunoprecipitations (ChIPs). To determine enrichment of LEF, b-catenin, or Histone Acetyl H3, we performed ChIPs with antibodies specific for LEF1, b-catenin, Ac H3. (B) Wnt activation by treatment with LiCl/BIO is accompanied by an increase in DNA accessibility over the DHS1 of the HIV LTR. […] FAIRE results are presented as fold change respective to the unstimulated value (normalized to 1) for each primer pair. (D) b-catenin while absent from the LTR in the repressed state, directly binds to the LTR upon LiCl/BIO activation. LEF1 binding, while present on the LTR in the repressed state is enriched upon LiCl/BIO treatment. […] Immunoprecipitated DNA from ChIPs and phenol:chloroform extracted DNA from FAIRE were analyzed by qPCR using primer pairs specific for the HIV LTR nuc-0, DHS1, nuc-1, and nuc-2 regions, and control region amplifying upstream of the Axin2 gene. […]

HIV LTR DHS1 and nuc-1 [1] = experiment: Histone H2B ChIP nucleosome occupancy at the HIV LTR; assay type: cell-based; details: latent J-Lat cells, 12 hours after stimulation; FIG. 4C
Protocol: as §1

[2] = system: b-catenin recruitment to HIV LTR; experiment: b-catenin ChIP at the HIV LTR in J-Lat cells; assay type: cell-based; details: latent J-Lat cells; FIG. 4D
Protocol: as §1

[3] = system: histone acetylation on the HIV LTR; experiment: Histone Acetyl H3 ChIP at the HIV LTR in J-Lat cells; assay type: cell-based; details: latent J-Lat cells; FIG. 4D
Protocol: as §1

HIV LTR DHS1 and nuc-1 [4] = experiment: FAIRE DNA accessibility at the HIV LTR; assay type: cell-based; details: latent J-Lat cells, 12 hours after stimulation; FIG. 4B
Protocol: as §1

Compound: O=C1Nc2cc(Br)ccc2/C1=C1/Nc2ccccc2/C1=N\O [BIO, (2′Z,3′E)-6-Bromoindirubin-3′-oxime]
- de-repression / activation of latent HIV LTR (latent HIV LTR): de-repression of latent HIV LTR; also recorded: activates the LTR in latently HIV infected cells
- enrichment of LEF1 at the HIV LTR (ChIP) (LEF1 binding at HIV LTR): enrichment of LEF1 at the HIV LTR
- nucleosome occupancy / histone density at the HIV LTR (H2B ChIP) (HIV LTR DHS1 and nuc-1 [1]): decreased nucleosome occupancy at DHS1
- recruitment of b-catenin to the HIV LTR (ChIP) [2]: recruitment of b-catenin to LTR DHS1 and nuc-1
- histone acetylation on the LTR (Ac H3 ChIP) [3]: histone acetylation is increased on the LTR
- DNA accessibility at the HIV LTR (FAIRE) (HIV LTR DHS1 and nuc-1 [4]): increase accessibility
